Measurements: ChEMBL document CHEMBL1134148, “Combinatorial synthesis of CCR5 antagonists” (Bioorg Med Chem Lett, 2001)
Active and inactive are the calls of the source. The calls are words filed in the database; no cut-off is given here.

What was measured:
[1] = biological target: T1, C-C chemokine receptor type 5 (Homo sapiens, UniProt P51681); assay: Ability to inhibit binding of [125I]-MIP-1 alpha to C-C chemokine receptor type 5 in Chinese hamster ovary (CHO) cell membranes
[2] = test system: Human immunodeficiency virus 1; assay: Inhibitory concentration for viral growth over 7 days vs YU-2 strain of HIV-1 at 10 uM; format: functional; conditions: Human immunodeficiency virus 1, 168 h
[3] = biological target: T1, C-C chemokine receptor type 5; assay: Ability to inhibit binding of [125I]-MIP-1 alpha to C-C chemokine receptor type 5 in Chinese hamster ovary (CHO) cell membranes.
[4] = biological target: T1, C-C chemokine receptor type 5; assay: Ability to inhibit binding of [125I]-MIP-1 alpha to C-C chemokine receptor type 5 in Chinese hamster ovary (CHO) cell membranes;NA means no significant activity.
[5] = test system: Human immunodeficiency virus 1; assay: Inhibitory concentration for viral growth over 7 days vs YU-2 strain of HIV-1;NA means No significant activity at 10 uM.; format: functional, organism-based

T1 sequence (P51681 whole entry): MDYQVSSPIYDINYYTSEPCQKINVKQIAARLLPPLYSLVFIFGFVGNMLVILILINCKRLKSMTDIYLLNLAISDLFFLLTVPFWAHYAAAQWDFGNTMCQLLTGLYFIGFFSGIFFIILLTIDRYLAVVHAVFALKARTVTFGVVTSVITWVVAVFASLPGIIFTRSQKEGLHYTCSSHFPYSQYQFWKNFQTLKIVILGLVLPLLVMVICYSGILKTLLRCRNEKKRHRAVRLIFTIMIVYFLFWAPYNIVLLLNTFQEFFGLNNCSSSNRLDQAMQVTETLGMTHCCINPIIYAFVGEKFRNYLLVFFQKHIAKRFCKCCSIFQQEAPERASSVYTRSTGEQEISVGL

IC50 [1] | IC50 [3] | SMILES | further results
25 nM |  | O=S(=O)(c1cccs1)N1C[C@H](CN2CCC(CCCc3ccccc3)CC2)[C@@H](c2ccccc2)C1 | 
 | 2 nM | CN(CC(CCN1CCC(CCCc2ccccc2)CC1)c1ccccc1)S(=O)(=O)c1ccc(-c2ccccn2)s1 (stereo unspecified) | IC95 [2]: 3100 nM
20 nM |  | O=S(=O)(c1cccs1)N1CC(CN2CCC(O)(CCCc3ccccc3)CC2)[C@@H](c2ccccc2)C1 (stereo partly specified) | 
41 nM |  | O=S(=O)(c1ccc(-c2ccccn2)s1)N1C[C@H](CN2CCC(O)(CCCc3ccccc3)CC2)[C@@H](c2ccccc2)C1 | 
60 nM |  | O=S(=O)(c1ccc(-c2ccccn2)s1)N1C[C@H](CN2CCC(CCCc3ccccc3)CC2)[C@@H](c2ccccc2)C1 | 
 | 4 nM | CN(CC(CCN1CCC(O)(CCCc2ccccc2)CC1)c1ccccc1)S(=O)(=O)c1ccc(-c2ccccn2)s1 (stereo unspecified) | IC95 [2]: 6200 nM

The remaining lines, values behind:

SMILES | IC50 [1] | IC50 [3] | further results
c1ccc(CCCC2CCN(C[C@H]3CN(CC4CCCCC4)C[C@@H]3c3ccccc3)CC2)cc1 | 6.5 nM |  | 
CN(CC1CCCCC1)CC(CCN1CCC(CCCc2ccccc2)CC1)c1ccccc1 (stereo unspecified) |  |  | IC50 [4]: Not Active
CN(CC(CCN1CCC(CCCc2ccccc2)CC1)c1ccccc1)S(=O)(=O)c1cccs1 (stereo unspecified) |  | 3 nM | IC95 [5]: inactive
CN(CC(CCN1CCC(O)(CCCc2ccccc2)CC1)c1ccccc1)S(=O)(=O)c1cccs1 (stereo unspecified) |  | 6.5 nM | 
CN(CC1CCCCC1)CC(CCN1CCC(O)(CCCc2ccccc2)CC1)c1ccccc1 (stereo unspecified) |  |  | IC50 [4]: Not Active
OC1(CCCc2ccccc2)CCN(C[C@H]2CN(CC3CCCCC3)C[C@@H]2c2ccccc2)CC1 | 1 nM |  | IC95 [2]: 580 nM
